Data taken from the supplement of paper PMC10307832.

Experiments:
Test in all cases: relative viability (nuclei count vs DMSO), 5 days (fraction); higher = more cells survive
[1] = tested on: UMC-11
In short: (§1)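 A single step with final 0.05% Triton X-100, 1% formaldehyde and 1 ug/ml Hoechst fixed the cells and stained nuclei 5 days after treatment. Lung cancer cell lines in 1536-well plates had been treated by pin tool the day after seeding with one drug alone or a fixed anchor-drug dose plus five library-drug doses (not always all listed) in √10 steps, and nuclei were counted on 4× images. Relative viability is the ratio of nuclei in treated wells to nuclei in vehicle wells, taken as the median of duplicate plates.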

[2] = tested on: NCI-H1975
In short: as §1

[3] = tested on: NCI-H2087
In short: as §1

[4] = tested on: NCI-H2009
In short: as §1

[5] = tested on: H3255
In short: as §1

[6] = tested on: NCI-H2085
In short: as §1

[7] = tested on: NCI-H23
In short: as §1

[8] = tested on: HCC-827
In short: as §1

[9] = tested on: LXF-289
In short: as §1

[10] = tested on: PC-3 [JPC-3]
In short: as §1

[11] = tested on: NCI-H1437
In short: as §1

[12] = tested on: LC-2-ad
In short: as §1

[13] = tested on: LCLC-103H
In short: as §1

[14] = tested on: NCI-H661
In short: as §1

[15] = tested on: NCI-H2342
In short: as §1

[16] = tested on: COR-L23
In short: as §1

[17] = tested on: NCI-H2228
In short: as §1

[18] = tested on: ABC-1
In short: as §1

[19] = tested on: HCC-366
In short: as §1

[20] = tested on: SK-MES-1
In short: as §1

[21] = tested on: PC-14
In short: as §1

[22] = tested on: HCC-15
In short: as §1

[23] = tested on: NCI-H1666
In short: as §1

## Cc1csc(=NC2CCCCC2)n1/N=C/c1ccc(O)c(O)c1O [MIM1] + O=C(c1cc(Cc2n[nH]c(=O)c3ccccc23)ccc1F)N1CCN(C(=O)C2CC2)CC1 [Olaparib] (partner 8 µM)
[1]; first compound 0.2 µM
  relative viability: 0.408
[1]; first compound 0.6325 µM
  relative viability: 0.4
[1]; first compound 2 µM
  relative viability: 0.548
[1]; first compound 6.325 µM
  relative viability: 0.237
[1]; first compound 20 µM
  relative viability: 0.183
[2]; first compound 0.2 µM
  relative viability: 0.737
[2]; first compound 0.6325 µM
  relative viability: 0.755
[2]; first compound 2 µM
  relative viability: 0.778
[2]; first compound 6.325 µM
  relative viability: 0.307
[2]; first compound 20 µM
  relative viability: 0.17
[3]; first compound 0.2 µM
  relative viability: 0.535
[3]; first compound 0.6325 µM
  relative viability: 0.701
[3]; first compound 2 µM
  relative viability: 0.702
[3]; first compound 6.325 µM
  relative viability: 0.481
[3]; first compound 20 µM
  relative viability: 0.241
[4]; first compound 0.2 µM
  relative viability: 0.662
[4]; first compound 0.6325 µM
  relative viability: 0.655
[4]; first compound 2 µM
  relative viability: 0.723
[4]; first compound 6.325 µM
  relative viability: 0.504
[4]; first compound 20 µM
  relative viability: 0.482
[5]; first compound 0.2 µM
  relative viability: 0.535
[5]; first compound 0.6325 µM
  relative viability: 0.541
[5]; first compound 2 µM
  relative viability: 0.518
[5]; first compound 6.325 µM
  relative viability: 0.473
[5]; first compound 20 µM
  relative viability: 0.253
[6]; first compound 0.2 µM
  relative viability: 0.768
[6]; first compound 0.6325 µM
  relative viability: 0.797
[6]; first compound 2 µM
  relative viability: 0.771
[6]; first compound 6.325 µM
  relative viability: 0.596
[6]; first compound 20 µM
  relative viability: 0.641
[7]; first compound 0.2 µM
  relative viability: 0.302
[7]; first compound 0.6325 µM
  relative viability: 0.266
[7]; first compound 2 µM
  relative viability: 0.215
[7]; first compound 6.325 µM
  relative viability: 0.111
[7]; first compound 20 µM
  relative viability: 0.13
[8]; first compound 0.2 µM
  relative viability: 0.653
[8]; first compound 0.6325 µM
  relative viability: 0.626
[8]; first compound 2 µM
  relative viability: 0.639
[8]; first compound 6.325 µM
  relative viability: 0.37
[8]; first compound 20 µM
  relative viability: 0.241
[9]; first compound 0.2 µM
  relative viability: 1.04
[9]; first compound 0.6325 µM
  relative viability: 0.844
[9]; first compound 2 µM
  relative viability: 1.13
[9]; first compound 6.325 µM
  relative viability: 0.915
[9]; first compound 20 µM
  relative viability: 0.179
[10]; first compound 0.2 µM
  relative viability: 1.14
[10]; first compound 0.6325 µM
  relative viability: 1.04
[10]; first compound 2 µM
  relative viability: 1.07
[10]; first compound 6.325 µM
  relative viability: 0.871
[10]; first compound 20 µM
  relative viability: 0.504
[11]; first compound 0.2 µM
  relative viability: 0.615
[11]; first compound 0.6325 µM
  relative viability: 0.644
[11]; first compound 2 µM
  relative viability: 0.58
[11]; first compound 6.325 µM
  relative viability: 0.192
[11]; first compound 20 µM
  relative viability: 0.206
[12]; first compound 0.2 µM
  relative viability: 0.616
[12]; first compound 0.6325 µM
  relative viability: 0.683
[12]; first compound 2 µM
  relative viability: 0.665
[12]; first compound 6.325 µM
  relative viability: 0.303
[12]; first compound 20 µM
  relative viability: 0.211
[13]; first compound 0.2 µM
  relative viability: 0.814
[13]; first compound 0.6325 µM
  relative viability: 0.771
[13]; first compound 2 µM
  relative viability: 0.782
[13]; first compound 6.325 µM
  relative viability: 0.532
[13]; first compound 20 µM
  relative viability: 0.336
[14]; first compound 0.2 µM
  relative viability: 0.696
[14]; first compound 0.6325 µM
  relative viability: 0.715
[14]; first compound 2 µM
  relative viability: 0.778
[14]; first compound 6.325 µM
  relative viability: 0.499
[14]; first compound 20 µM
  relative viability: 0.316
[15]; first compound 0.2 µM
  relative viability: 0.432
[15]; first compound 0.6325 µM
  relative viability: 0.386
[15]; first compound 2 µM
  relative viability: 0.42
[15]; first compound 6.325 µM
  relative viability: 0.395
[15]; first compound 20 µM
  relative viability: 0.571
[16]; first compound 0.2 µM
  relative viability: 0.29
[16]; first compound 0.6325 µM
  relative viability: 0.365
[16]; first compound 2 µM
  relative viability: 0.287
[16]; first compound 6.325 µM
  relative viability: 0.224
[16]; first compound 20 µM
  relative viability: 0.164
[17]; first compound 0.2 µM
  relative viability: 0.719
[17]; first compound 0.6325 µM
  relative viability: 0.719
[17]; first compound 2 µM
  relative viability: 0.861
[17]; first compound 6.325 µM
  relative viability: 0.227
[17]; first compound 20 µM
  relative viability: 0.192
[18]; first compound 0.2 µM
  relative viability: 0.952
[18]; first compound 0.6325 µM
  relative viability: 1.27
[18]; first compound 2 µM
  relative viability: 1.03
[18]; first compound 6.325 µM
  relative viability: 0.78
[18]; first compound 20 µM
  relative viability: 0.388
[19]; first compound 0.2 µM
  relative viability: 0.351
[19]; first compound 2 µM
  relative viability: 0.249
[19]; first compound 6.325 µM
  relative viability: 0.0373
[19]; first compound 20 µM
  relative viability: 0.0269
[20]; first compound 0.2 µM
  relative viability: 0.743
[20]; first compound 0.6325 µM
  relative viability: 0.657
[20]; first compound 2 µM
  relative viability: 0.548
[20]; first compound 6.325 µM
  relative viability: 0.259
[20]; first compound 20 µM
  relative viability: 0.108
[21]; first compound 0.2 µM
  relative viability: 0.276
[21]; first compound 0.6325 µM
  relative viability: 0.283
[21]; first compound 2 µM
  relative viability: 0.228
[21]; first compound 6.325 µM
  relative viability: 0.232
[21]; first compound 20 µM
  relative viability: 0.0784
[22]; first compound 0.2 µM
  relative viability: 0.717
[22]; first compound 0.6325 µM
  relative viability: 0.713
[22]; first compound 2 µM
  relative viability: 0.749
[22]; first compound 6.325 µM
  relative viability: 0.39
[22]; first compound 20 µM
  relative viability: 0.115
[23]; first compound 0.2 µM
  relative viability: 0.71
[23]; first compound 0.6325 µM
  relative viability: 0.739
[23]; first compound 2 µM
  relative viability: 0.665
[23]; first compound 6.325 µM
  relative viability: 0.72
[23]; first compound 20 µM
  relative viability: 0.707
